Assays:
Experiment in all cases: relative viability (nuclei count vs DMSO), 5 days (fraction); higher = more cells survive
AZ505 + Bortezomib = compound: C1CCC(CC1)N(CCNCCC2=C3C(=C(C=C2)O)NC(=O)CO3)C(=O)CCNCCC4=CC(=C(C=C4)Cl)Cl [AZ505] + CC(C)C[C@H](NC(=O)[C@H](Cc1ccccc1)NC(=O)c1cnccn1)B(O)O [Bortezomib] (partner 0.002 µM)
Method in brief: (§1)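 One day after seeding in 1536-well plates, lung cancer cell lines were dosed by pin tool. Dosing was either single-drug or a fixed anchor-drug dose plus five library-drug doses (not always all listed) in √10 steps. After 5 days, nuclei were stained in one fix-and-stain step and counted on 4× images, and relative viability is the nuclei count of treated wells over that of vehicle wells, given as the median of duplicate plates.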

AZ505 + Navitoclax = compound: C1CCC(CC1)N(CCNCCC2=C3C(=C(C=C2)O)NC(=O)CO3)C(=O)CCNCCC4=CC(=C(C=C4)Cl)Cl [AZ505] + CC1(C)CCC(c2ccc(Cl)cc2)=C(CN2CCN(c3ccc(C(=O)NS(=O)(=O)c4ccc(N[C@H](CCN5CCOCC5)CSc5ccccc5)c(S(=O)(=O)C(F)(F)F)c4)cc3)CC2)C1 [Navitoclax] (partner 0.5 µM)
Method in brief: as §1

AZ505 + Pemetrexed = compound: C1CCC(CC1)N(CCNCCC2=C3C(=C(C=C2)O)NC(=O)CO3)C(=O)CCNCCC4=CC(=C(C=C4)Cl)Cl [AZ505] + Nc1nc2[nH]cc(CCc3ccc(C(=O)N[C@@H](CCC(=O)O)C(=O)O)cc3)c2c(=O)[nH]1 [Pemetrexed] (partner 0.2 µM)
Method in brief: as §1

Dactolisib + Phenformin = compound: Cn1c(=O)n(-c2ccc(C(C)(C)C#N)cc2)c2c3cc(-c4cnc5ccccc5c4)ccc3ncc21 [Dactolisib] + N=C(N)NC(=N)NCCc1ccccc1 [Phenformin] (partner 250 µM)
Method in brief: as §1

Cell Line | relative viability (AZ505 + Bortezomib; first compound 0.08 µM) | relative viability (AZ505 + Bortezomib; first compound 0.253 µM) | relative viability (AZ505 + Bortezomib; first compound 0.8 µM) | relative viability (AZ505 + Bortezomib; first compound 2.53 µM) | relative viability (AZ505 + Bortezomib; first compound 8 µM) | relative viability (AZ505 + Navitoclax; first compound 0.253 µM) | relative viability (AZ505 + Navitoclax; first compound 0.8 µM) | relative viability (AZ505 + Navitoclax; first compound 2.53 µM) | relative viability (AZ505 + Navitoclax; first compound 8 µM) | relative viability (AZ505 + Pemetrexed; first compound 0.8 µM) | relative viability (AZ505 + Pemetrexed; first compound 2.53 µM) | relative viability (AZ505 + Pemetrexed; first compound 8 µM) | relative viability (Dactolisib + Phenformin; first compound 0.002 µM) | relative viability (Dactolisib + Phenformin; first compound 0.006325 µM) | relative viability (Dactolisib + Phenformin; first compound 0.02 µM) | relative viability (Dactolisib + Phenformin; first compound 0.06325 µM) | relative viability (Dactolisib + Phenformin; first compound 0.2 µM) | relative viability (AZ505 + Navitoclax; first compound 0.08 µM) | relative viability (AZ505 + Pemetrexed; first compound 0.08 µM) | relative viability (AZ505 + Pemetrexed; first compound 0.253 µM)
HCC-78 | 0.619 | 0.72 | 0.557 | 0.546 | 0.587 | 0.852 | 0.832 | 0.919 | 0.818 | 0.916 | 0.904 | 0.918 | 0.912 | 0.771 | 0.63 | 0.495 | 0.319 |  |  | 
HCC-366 | 0.933 | 1.01 | 1.02 | 0.952 | 1.11 | 0.948 | 1.02 | 1.12 | 1.06 | 0.179 | 0.2 | 0.16 | 0.602 | 0.625 | 0.587 | 0.397 | 0.151 | 1.03 | 0.142 | 0.174
HCC-827 | 0.92 | 0.957 | 1.01 | 1 | 1.1 | 0.966 | 0.967 | 0.963 | 0.98 | 0.288 | 0.264 | 0.266 | 0.394 | 0.392 | 0.396 | 0.382 | 0.393 | 1.03 | 0.288 | 0.269
IA-LM | 0.59 | 0.867 | 0.835 | 0.866 | 0.896 | 0.943 | 0.703 | 0.779 | 0.872 |  |  |  |  |  |  |  |  | 0.622 |  | 
LCLC-103H | 0.894 | 1.05 | 1.01 | 1.02 | 1.06 |  |  |  |  | 0.457 | 0.519 | 0.448 | 0.369 | 0.321 | 0.345 | 0.317 | 0.291 |  | 0.453 | 0.491
LK-2 |  |  |  |  |  | 0.952 | 0.805 | 0.934 | 0.842 | 0.294 | 0.283 | 0.313 | 0.297 | 0.324 | 0.248 | 0.146 | 0.114 | 0.825 | 0.215 | 0.254
NCI-H358 |  |  |  |  |  |  |  |  |  | 0.158 | 0.179 | 0.184 | 0.317 | 0.302 | 0.286 | 0.221 | 0.111 |  | 0.177 | 0.227
NCI-H522 |  |  |  |  |  |  |  |  |  | 1.03 | 1.22 | 0.808 | 0.591 | 0.647 | 0.548 | 0.535 | 0.631 |  | 1 | 1.04
NCI-H650 | 0.607 | 0.793 | 0.818 | 1.02 | 0.775 |  |  |  |  | 1.01 | 1.12 | 0.881 | 0.549 | 0.475 | 0.433 | 0.389 | 0.315 |  | 0.86 | 0.875
NCI-H661 | 0.798 | 1.01 | 0.716 | 0.787 | 0.732 |  |  |  |  | 0.865 | 0.931 | 0.928 | 0.254 | 0.278 | 0.292 | 0.216 | 0.265 |  | 0.834 | 0.928
NCI-H727 | 0.728 | 0.708 | 0.767 | 0.747 | 0.934 | 0.461 | 0.471 | 0.428 | 0.483 |  |  |  | 0.653 | 0.588 | 0.528 | 0.359 | 0.309 | 0.501 |  | 
NCI-H1299 | 1.01 | 1.05 | 0.926 | 0.998 | 1.01 | 0.991 | 0.974 | 1.02 | 1 |  |  |  |  |  |  |  |  | 1.02 |  | 
NCI-H1395 |  |  |  |  |  | 1.06 | 1.06 | 1.07 | 1.18 | 0.733 | 0.969 | 1.04 | 0.445 | 0.485 | 0.453 | 0.377 | 0.373 | 1.09 | 0.919 | 
NCI-H1563 | 0.846 | 0.743 | 0.83 | 0.766 | 0.922 |  |  |  |  | 0.875 | 0.771 | 0.769 | 0.674 | 0.622 | 0.626 | 0.61 | 0.54 |  | 0.703 | 0.782
NCI-H1623 |  |  |  |  |  |  |  |  |  |  |  |  | 0.618 | 0.628 | 0.561 | 0.585 | 0.438 |  |  | 
NCI-H1648 |  |  |  |  |  |  |  |  |  | 0.679 | 0.79 | 0.953 |  |  |  |  |  |  |  | 0.743
NCI-H1703 | 0.351 | 0.383 | 0.366 | 0.358 | 0.458 | 1.36 | 1.32 | 1.31 | 1.55 |  |  |  |  |  |  |  |  | 1.05 |  | 
NCI-H1793 |  |  |  |  |  | 0.405 | 0.455 | 0.396 | 0.428 | 0.878 | 0.851 | 1.06 | 0.477 | 0.294 | 0.228 | 0.202 | 0.187 | 0.352 | 0.863 | 0.756
NCI-H1944 |  |  |  |  |  | 1.03 | 1.03 | 0.907 | 1.02 | 0.796 | 0.499 | 0.597 | 0.235 | 0.21 | 0.187 | 0.138 | 0.14 | 1.03 | 0.748 | 0.558
NCI-H2170 |  |  |  |  |  | 0.665 | 0.531 | 0.666 | 0.651 | 0.238 | 0.253 | 0.264 | 0.454 | 0.433 | 0.48 | 0.434 | 0.284 | 0.541 | 0.254 | 0.257
NCI-H2342 |  |  |  |  |  |  |  |  |  | 0.836 | 0.776 | 0.853 | 0.492 | 0.64 | 0.54 | 0.559 | 0.525 |  | 0.711 | 0.737
SK-MES-1 |  |  |  |  |  | 1.19 | 1.29 | 1.14 | 1.31 | 0.875 | 0.949 | 0.882 | 0.667 | 0.662 | 0.627 | 0.388 | 0.212 | 1.13 | 0.81 | 0.909
SW 900 |  |  |  |  |  |  |  |  |  | 0.494 | 0.498 | 0.511 | 0.67 | 0.536 | 0.591 | 0.288 | 0.198 |  | 0.495 | 0.516
